According to ChEMBL document CHEMBL5154930, “Design, Synthesis, and Biological Evaluations of DOT1L Peptide Mimetics Targeting the Protein-Protein Interactions between DOT1L and MLL-AF9/MLL-ENL” (J Med Chem, 2022):
Calls of active or inactive are those of the source. The rule behind the calls is not given here. Non-standard residues stand in square brackets, D forms with d. Residues, ends and D or L forms follow the SMILES beside them. *: point of attachment. X1 = C[C@H](N*)c1nc2cccc(-c3ccccc3)c2[nH]1; Ala(cPent) = N[C@@H](CC1CCCC1)C(=O)O; Pentanoyl(4-Me) = CC(C)CCC(=O)*; Dap(Me) = CNC[C@H](N)C(=O)O

Experiments:
[1] = tested on: MOLM-13; assay: Down regulation of HOXA11 gene in human MOLM-13 cells by RNA-sequencing analysis; type: functional, cell-based
[2] = tested on: MOLM-13; assay: Inhibition of methylation of H3K79 in human MOLM-13 cells assessed as inhibition of methylation at HOXA11 gene cluster by chromatin immunoprecipitation assay; type: functional, cell-based
[3] = tested on: MOLM-13; assay: Induction of apoptosis in human MOLM-13 cells at 0.25 to 1 uM assessed as cleaved Caspase-3 by Annexin V-FITC/PI staining based flow cytometry analysis; type: functional, cell-based; conditions: dose 0.25-1 µM
[4] = tested on: MOLM-13; assay: Down regulation of CNOT6L gene in human MOLM-13 cells by RNA-sequencing analysis; type: functional, cell-based
[5] = tested on: MOLM-13; assay: cells; conditions: Homo sapiens, MOLM-13, 168 h
Description: Anticancer activity against human MOLM-13 cells harbouring MLL-AF9 assessed as inhibition of cell growth treated for 7 days measured by CCK-8 kit method

[6] = tested on: MOLM-13; assay: Down regulation of RUNX1 gene in human MOLM-13 cells by RNA-sequencing analysis; type: functional, cell-based
[7] = tested on: MOLM-13; assay: Down regulation of MEF2C gene in human MOLM-13 cells by RNA-sequencing analysis; type: functional, cell-based
[8] = tested on: MOLM-13; assay: Inhibition of methylation of H3K79 in human MOLM-13 cells assessed as inhibition of methylation at HOXA2 gene cluster by chromatin immunoprecipitation assay; type: functional, cell-based
[9] = tested on: MOLM-13; assay: Down regulation of ARID2 gene in human MOLM-13 cells by RNA-sequencing analysis; type: functional, cell-based
[10] = tested on: MOLM-13; assay: Inhibition of methylation of H3K79 in human MOLM-13 cells assessed as inhibition of methylation at HOXA5 gene cluster by chromatin immunoprecipitation assay; type: functional, cell-based
[11] = tested on: MOLM-13; assay: Induction of apoptosis in human MOLM-13 cells at 0.25 to 1 uM assessed as cleaved PARP by Annexin V-FITC/PI staining based flow cytometry analysis; type: functional, cell-based; conditions: dose 0.25-1 µM
[12] = tested on: MV4-11; assay: Anticancer activity against human MV4-11 cells assessed as inhibition of cell growth treated for 8 days measured by CCK-8 kit method; type: functional, cell-based; conditions: MV4-11, 192 h
[13] = tested on: MOLM-13; assay: Inhibition of methylation of H3K79 in human MOLM-13 cells assessed as inhibition of methylation at MEIS1-AS3 gene cluster by chromatin immunoprecipitation assay; type: functional, cell-based
[14] = tested on: MOLM-13; assay: Induction of apoptosis in human MOLM-13 cells at 0.25 to 1 uM by Annexin V-FITC/PI staining based flow cytometry analysis; type: functional, cell-based; conditions: dose 0.25-1 µM, time 5-9 day, TDE = time-dependent effect
[15] = tested on: MOLM-13; assay: Down regulation of DCUN1D1 gene in human MOLM-13 cells by RNA-sequencing analysis; type: functional, cell-based
[16] = tested on: MOLM-13; assay: Induction of apoptosis in human MOLM-13 cells treated for 7 days by Annexin V-FITC/PI staining based flow cytometry analysis; type: functional, cell-based; conditions: dose 0.25-1 µM, time 7.0 day
[17] = tested on: MOLM-13; assay: Down regulation of HOXA5 gene in human MOLM-13 cells by RNA-sequencing analysis; type: functional, cell-based
[18] = tested on: MOLM-13; assay: cells; conditions: Homo sapiens, MOLM-13, 120 h
Description: Anticancer activity against human MOLM-13 cells harbouring MLL-AF9 assessed as inhibition of cell growth treated for 5 days measured by CCK-8 kit method

[19] = tested on: MOLM-13; assay: cells; conditions: Homo sapiens, MOLM-13, 192 h
Description: Anticancer activity against human MOLM-13 cells harbouring MLL-AF9 assessed as inhibition of cell growth treated for 8 days measured by CCK-8 kit method

[20] = tested on: MOLM-13; assay: Inhibition of methylation of H3K79 in human MOLM-13 cells assessed as inhibition of methylation at […] gene cluster by chromatin immunoprecipitation assay; type: functional, cell-based
[21] = tested on: MOLM-13; assay: Down regulation of GATA2 gene in human MOLM-13 cells by RNA-sequencing analysis; type: functional, cell-based

IC50 [5]: 167 nM
IC50 [12]: 220 nM
IC50 [18]: 703 nM
IC50 [19]: 70 nM
Structure (SMILES): CNC[C@H](NC(=O)[C@@H](NC(=O)[C@@H]1CCCN1C(=O)CCC(C)C)C(C)C)C(=O)N[C@@H](CC1CCCC1)C(=O)N[C@@H](C)c1nc2cccc(-c3ccccc3)c2[nH]1 ({Pentanoyl(4-Me)}-PV[Dap(Me)][Ala(cPent)]-X1)
Activity [1]: Active
inhibition [2]: Active
Activity [3]: Active
Activity [4]: Active
Activity [6]: Active
Activity [7]: Active
inhibition [8]: Active
Activity [9]: Active
inhibition [10]: Active
Activity [11]: Active
inhibition [13]: Active
Activity [14]: Tde
Activity [15]: Active
Activity [16]: Active
Activity [17]: Active
inhibition [20]: Active
Activity [21]: Active
